According to the supplement of paper PMC10702517:
± gives the standard deviation.

Assays:
[1] = chemical recovery from spiked human plasma; higher = better extraction; details: pooled human plasma
[2] = chemical recovery into PDMS from spiked human plasma; higher = better extraction; details: pooled human plasma, extraction method: PES with PDMS
[3] = extraction method: PES+SPE (3 d PDMS equilibration then HLB SPE)
[4] = extraction method: SPE only (HLB 96-well)
[5] = extraction method: SPE only (HLB 96-well), PES comparison experiment
[6] = extraction method: solvent precipitation (ACN + hexane)

Nc1ccccc1-c1ccccc1 [2-Aminobiphenyl]
chemical recovery [1, 3]: 17.3 ± 3.9% | chemical recovery [1, 4]: 22.6 ± 0.6% | chemical recovery [1, 5]: 27.7 ± 4.4% | chemical recovery [1, 6]: 2.86 ± 5% | chemical recovery into PDMS ([2]; equilibration time (d): 1): 14.2 ± 6.8% | chemical recovery into PDMS ([2]; equilibration time (d): 3): 14 ± 7.3%

CC(C)c1ccc2sc3ccccc3c(=O)c2c1 [2-Isopropylthioxanthone]
chemical recovery [1, 4]: 33.5 ± 9.6% | chemical recovery [1, 5]: 19.8 ± 4.6% | chemical recovery into PDMS ([2]; equilibration time (d): 1): 45.3 ± 4.8% | chemical recovery into PDMS ([2]; equilibration time (d): 3): 48.5 ± 4.6% | chemical recovery into PDMS ([2]; equilibration time (d): 6): 46.7 ± 2.5%

Clc1ccc(C(c2ccc(Cl)cc2)C(Cl)Cl)cc1 [4,4-DDD]
chemical recovery into PDMS ([2]; equilibration time (d): 1): 1.61 ± 0.67% | chemical recovery into PDMS ([2]; equilibration time (d): 3): 1.42 ± 0.086% | chemical recovery into PDMS ([2]; equilibration time (d): 6): 1.39 ± 0.11%

O=c1[nH]cc(F)c(=O)[nH]1 [5-Fluorouracil]
chemical recovery [1, 3]: 0.502 ± 0.11% | chemical recovery [1, 4]: 0.392 ± 0.68% | chemical recovery into PDMS ([2]; equilibration time (d): 3): 0.00395 ± 0.0068%

CC(=O)[C@@]1(O)CC[C@H]2[C@@H]3CCC4=CC(=O)CC[C@]4(C)[C@H]3CC[C@@]21C [17alpha-Hydroxyprogesterone]
chemical recovery [1, 5]: 51.1 ± 7.7% | chemical recovery into PDMS ([2]; equilibration time (d): 1): 7.94 ± 0.8% | chemical recovery into PDMS ([2]; equilibration time (d): 3): 12.2 ± 1.3% | chemical recovery into PDMS ([2]; equilibration time (d): 6): 13.1 ± 1.1%

N#CSCSc1nc2ccccc2s1 [(Benzothiazol-2-ylthio)methyl thiocyanate]
chemical recovery [1, 5]: 33.5 ± 7.2% | chemical recovery into PDMS ([2]; equilibration time (d): 1): 24.8 ± 3.2% | chemical recovery into PDMS ([2]; equilibration time (d): 3): 11 ± 4% | chemical recovery into PDMS ([2]; equilibration time (d): 6): 13.3 ± 4.5%

c1ccc2cc3ccccc3cc2c1 [Anthracene]
chemical recovery [1, 5]: 17.7 ± 2.9% | chemical recovery into PDMS ([2]; equilibration time (d): 1): 70 ± 4.1% | chemical recovery into PDMS ([2]; equilibration time (d): 3): 79.7 ± 8.8% | chemical recovery into PDMS ([2]; equilibration time (d): 6): 80.6 ± 8%

c1ccc2cc3c(cc2c1)-c1cccc2cccc-3c12 [Benzo(k)fluoranthene]
chemical recovery [1, 4]: 1.23 ± 0.43% | chemical recovery [1, 6]: 50.7 ± 1.6% | chemical recovery into PDMS ([2]; equilibration time (d): 3): 92.5 ± 5.6% | chemical recovery into PDMS ([2]; equilibration time (d): 6): 93.8 ± 18%

CCCCCCCCCCCCCC[N+](C)(C)Cc1ccccc1 [Benzyldimethyltetradecylammonium]
chemical recovery [1, 4]: 66.8 ± 24% | chemical recovery into PDMS ([2]; equilibration time (d): 6): 0.508 ± 1%

CCC(=O)OCC(=O)[C@@]1(OC(=O)CC)[C@@H](C)C[C@H]2[C@@H]3CCC4=CC(=O)C=C[C@]4(C)[C@@]3(F)[C@@H](O)C[C@@]21C [Betamethasone dipropionate]
chemical recovery [1, 5]: 39.3 ± 5.3% | chemical recovery into PDMS ([2]; equilibration time (d): 1): 42.4 ± 3% | chemical recovery into PDMS ([2]; equilibration time (d): 3): 44 ± 1.3% | chemical recovery into PDMS ([2]; equilibration time (d): 6): 45.4 ± 3.2%

O=S(=O)(c1ccc(Cl)cc1)c1ccc(Cl)cc1 [Bis(4-chlorophenyl)sulfone]
chemical recovery [1, 4]: 4.65 ± 1.5% | chemical recovery into PDMS ([2]; equilibration time (d): 1): 41.4 ± 2.9% | chemical recovery into PDMS ([2]; equilibration time (d): 6): 39.6 ± 14%

CC1C(C)(C)C2=C(C(=O)CCC2)C1(C)C (stereo unspecified) [Cashmeran]
chemical recovery [1, 5]: 2.88 ± 2% | chemical recovery into PDMS ([2]; equilibration time (d): 1): 20.3 ± 6.3% | chemical recovery into PDMS ([2]; equilibration time (d): 3): 23.2 ± 9.8% | chemical recovery into PDMS ([2]; equilibration time (d): 6): 17.8 ± 2.9%

CC(=O)c1cc(C(C)(C)C)cc2c1CCC2(C)C [Celestolide]
chemical recovery [1, 4]: 1.5 ± 0.73% | chemical recovery [1, 6]: 76.6 ± 27% | chemical recovery into PDMS ([2]; equilibration time (d): 1): 33.2 ± 0.97% | chemical recovery into PDMS ([2]; equilibration time (d): 3): 37.6 ± 3.8% | chemical recovery into PDMS ([2]; equilibration time (d): 6): 34.7 ± 3.6%

CC=CC(=O)N(CC)c1ccccc1C [Crotamiton]
chemical recovery [1, 4]: 37 ± 4.8% | chemical recovery [1, 5]: 36.1 ± 7.8% | chemical recovery [1, 6]: 56.3 ± 3.9% | chemical recovery into PDMS ([2]; equilibration time (d): 6): 36.1 ± 0.56%

O=P1(N(CCCl)CCCl)NCCCO1 (stereo unspecified) [Cyclophosphamide]
chemical recovery [1, 3]: 49.6 ± 4.1% | chemical recovery [1, 4]: 41 ± 4% | chemical recovery [1, 5]: 55 ± 4.7% | chemical recovery [1, 6]: 70.9 ± 3.3% | chemical recovery into PDMS ([2]; equilibration time (d): 1): 1.55 ± 2.7% | chemical recovery into PDMS ([2]; equilibration time (d): 3): 2.5 ± 4.3% | chemical recovery into PDMS ([2]; equilibration time (d): 6): 6.21 ± 5.4%

CCCCCCCCn1sc(Cl)c(Cl)c1=O [DCOIT]
chemical recovery [1, 4]: 27.3 ± 3.7% | chemical recovery into PDMS ([2]; equilibration time (d): 1): 25.7 ± 3.8% | chemical recovery into PDMS ([2]; equilibration time (d): 3): 3.03 ± 5.2% | chemical recovery into PDMS ([2]; equilibration time (d): 6): 5.33 ± 4.6%
